{"source": "patent US9937227B2", "about": "“Humanin, analogs and cancer treatment methods and uses thereof” (LOS ANGELES BIOMEDICAL RESEARCH INSTITUTE AT HARBOR-UCLA …, priority 2014, dated 2018)", "key": {"[1]": {"tested_on": "B16 melanoma cells", "type": "cell-based", "description": "Furthermore, the autophagy induction of humanin may be related to its apparent effects of enhancing longevity observed in other systems."}, "[2]": {"tested_on": "Leydig cells", "assay": "Histology of rat testes: Leydig cells", "conditions": "EDS for three days"}, "[3]": {"tested_on": "male germ cells"}, "[4]": {"tested_on": "testosterone", "conditions": "with or without EDS pre-treatment"}, "[5]": {"tested_on": "Leydig cells", "assay": "Testosterone of cultured Leydig cells treated with ketoconazole", "type": "cell-based, rat", "conditions": "KTZ 10 mcg/ml, 4 hours", "protocol": "Leydig cells were isolated based on a previously described procedure (Gao, et al., 1996; Klinefelter, et al., 1987; Salva, et al., 2001). Briefly, the testes were decapsulated, and then dissociated with collagenase, dispase, DNase and shaking for 15 min at 34° C. The seminiferous tubules were removed by filtration through 40 μm nylon mesh (BD Falcon, Franklin Lakes, N.J.). Leydig cells were then harvested after centrifugation and purified using a Percoll gradient (GE Healthcare, Uppsala, Sweden) and centrifugation (60 minutes at 20,000 g at 4° C.). Enriched Leydig cells were harvested at densities between 1.065 (red) and 1.075 (blue) g/cm^3 from the percoll gradient. These Leydig cells were washed by diluting the percoll and excluding residual germ cells and other cells using a BSA density gradient with centrifugation. The purity of the Leydig cells was >90%, as determined by histochemical staining for 3β-hydroxysteroid dehydrogenase. The cell viability, as assessed by trypan blue exclusion, was greater than 90%. […]\nTestosterone concentrations in plasma, testes, and culture medium were measured by a previously described radioimmunoassay (Lue, et al., 2010) with a minimal detection limit of 0.1 ng/ml. […]"}, "[6]": {"tested_on": "male germ cells", "type": "in vivo, mouse", "conditions": "middle stages", "protocol": "Onco-infertility is a major concern of cancer survivors. In this study, it was investigated whether HNG will prevent chemotherapy (Temozolomide, TMZ, an alkylating agent used clinically to treat brain tumors) induced male germ cell apoptosis in SCID mice bearing subcutaneous implants of human medulloblastoma. DAOY human pediatric medulloblastoma cells (1.0×10^8 cells/animal) were injected subcutaneously into the right flank of 7-week old male SCID mice. After 3 weeks to allow tumor growth, each group of mice (n=4 to 5/group) received one of the following treatments: 1) vehicle (control); 2) HNG intra-peritoneal (IP) injection (HNG, 5 mg/Kg BW/day, 3 days pretreatment +5 days treatment); 3) TMZ IP injection (TMZ, 50 mg/Kg BW/day×5 days); 4) TMZ and HNG IP injections (TMZ+HNG). Mice were sacrificed 24 hours after the last injection, subcutaneous tumors were dissected and weighed (FIG. 26) and male germ cell apoptosis was assessed by TUNEL staining and quantified (Apoptosis Index, AI, number of apoptotic germ cell/Sertoli cell, FIG. 27). […] HNG ameliorated TMZ-induced germ cell apoptosis without affecting the chemotherapeutic effect on transplanted medulloblastoma tumor in an immunocompromised mouse model."}, "[7]": {"conditions": "Table 1; cited from earlier work"}}, "note": "Read-outs that look alike come from different tables or passages of the source.", "data": [{"compound": "Cn1cnc(=N)c2[nH]cnc21", "note": "[3-MA]", "values": [{"measurement": "additive effect of humanin in doxorubicin treated B16 cells, with autophagy inhibitor", "setting": "[1]", "result": "diminished"}]}, {"compound": "CS(=O)(=O)OCCOS(C)(=O)=O", "note": "[EDS, ethane dimethanesulfonate]", "values": [{"measurement": "Leydig cells in the interstitial spaces compared to control", "setting": "[2]", "result": "depletion of Leydig cells"}, {"measurement": "germ cell apoptosis compared to control", "setting": "[3]; early (I-VI) and late (IX-XIV) stages, EDS pre-treated", "result": "did not significantly increase"}, {"measurement": "germ cell apoptosis compared to control", "setting": "[3]; middle (VII-VIII) stages, EDS 80 mg/kg pre-treatment", "result": "significant acute cytotoxic effects"}, {"measurement": "intratesticular testosterone levels", "setting": "[4]", "result": "decreased to very low levels"}, {"measurement": "serum testosterone levels", "setting": "[4]", "result": "decreased to very low levels"}]}, {"compound": "CC(=O)N1CCN(c2ccc(OCC3COC(Cn4ccnc4)(c4ccc(Cl)cc4Cl)O3)cc2)CC1", "note": "(centres unmarked) [KTZ, ketoconazole]", "values": [{"measurement": "testosterone levels compared to control", "setting": "[5]", "result": "lowered the testosterone levels significantly"}]}, {"compound": "Cn1nnc2c(C(N)=O)ncn2c1=O", "note": "[TMZ, Temozolomide]", "values": [{"measurement": "Apoptosis Index (AI, apoptotic germ cell/Sertoli cell)", "setting": "[6]", "result": "0.058±0.006"}]}, {"compound": "CCN(CC)CCCC(C)Nc1ccnc2cc(Cl)ccc12", "note": "(centres unmarked) [chloroquine]", "values": [{"measurement": "additive effect of humanin in doxorubicin treated B16 cells, with autophagy inhibitor", "setting": "[1]", "result": "diminished"}]}, {"compound": "MAPRGASCLLLLTSEIDLPVKRRA [HN-F6A]", "values": [{"measurement": "Cytoprotective Action", "setting": "[7]", "result": "Similar/more effective"}]}, {"compound": "MAPRGFSALLLLTSEIDLPVKRRA [HN-C8A, HN mutant, Cys8 to Ala]", "values": [{"measurement": "Cytoprotective Action", "setting": "[7]", "result": "Not effective, prevents"}]}]}
